Experimental data reported in PubChem BioAssay AID2060506 (Molecular Pharmacology Branch, DTP, NCI, 2025).
Values joined by “and” are separate entries in the source; they are usually repeats but may differ in a detail not shown here. Equal values may be shown once.

Test system: 598228-144-R-J1-PDC complex spheroid viability
Test: Anticancer human tumor 598228-144-R-J1-PDC patient-derived serous endometrial adenocarcinoma cell line growth inhibition [GQUAD]
Conditions: for viability, T/C: stronger effect = lower value
Excerpt: DNA G-quadruplex Stabilizer Agents in Combinations in Complex Spheroids
A high-throughput screen of multi-cell type tumor spheroids was designed to identify active combinations of DNA G-quadruplex stabilizer agents and targeted small molecules. Complex spheroids include a stromal component modeled by human endothelial cells (HUVEC) and fibroblasts modeled by human mesenchymal stem cells (MSCs). The concentration ranges selected for each drug and investigational agent were based upon clinically achievable concentrations if the clinical Cmax of the agent was known.
Compounds. The drugs and investigational agents: pidnarulex (CX-5461; NSC782164), APTO-253 (NSC789042), BRACO-19 (NSC847499), peposertib (NSC802822), ceralasertib (NSC780249), elimusertib (NSC800525), camonsertib (NSC841442), AZD-1390 (NSC803789), olaparib (NSC753686), talazoparib (NSC767125), ART-558 (NSC835418), sotorasib (NSC818433), MRTX-1133 (NSC836407), SN-38 (NSC673596), topotecan (NSC609699), etoposide (NSC141540), doxorubicin (NSC123127), gemcitabine (NSC613327), 5-fluorouracil (NSC19893), paclitaxel (NSC125973), vemurafenib (NSC761431), panobinostat (NSC761190), R-306465 (JNJ-16241199; NSC773264), adavosertib (NSC754352), TP-3654 (NSC805149), carboplatin (NSC241240), KSQ-4279 (NSC840948), and staurosporine (NSC755774) were obtained from the National Cancer Institute (NCI) Developmental Therapeutics Program Chemical Repository (34). The FDA-approved anticancer drug set is available from the NCI Developmental Therapeutics Program. […] The stock solutions were prepared in dimethyl sulfoxide (DMSO, Sigma-Aldrich, St. Louis, MO, cat. D2650) at 800-fold the tested concentration and stored at -70 degrees C prior to their use. All drugs and investigational agents were tested over a range starting from a high concentration at or near the clinical Cmax and decreasing in half-log increments. If the clinical Cmax for an agent had not been determined, the highest concentration tested was 10 microM.
2.3 Cell Culture. All cells were maintained in an incubator at 37 degrees C and 5% CO2 with 95% humidity. The PDC lines were cultured according to standard operating procedures established by the NCI PDMR. All PDCs were thawed and cultured in Matrigel-coated flasks prepared with a working solution of 1X Ham's F-12 nutrient mix, without supplementation (Invitrogen, cat. 11765054), 100 U/mL penicillin-streptomycin (Invitrogen, cat. 15140122), and 2.5% Matrigel (Corning Inc., cat. 354248) for the first three passages. The 857933-349-R-J2-PDC line was cultured in 6C/Colon 1B media, which includes advanced DMEM/F-12 (Thermo Fisher Scientific, cat. 12634028), 10 mM HEPES (Thermo Fisher Scientific, cat. 15630080), 1X GlutaMAX supplement (Thermo Fisher Scientific, cat. 35050061), 0.1 mg/mL primocin (InvivoGen, cat. ant-pm-2), 10% defined fetal bovine serum, heat inactivated (HyClone Laboratories Inc., cat. SH30070.03HI), 50% L-WRN conditioned media (ATCC, cat. CRL-3276), 1.25 mM N-Acetyl-L-cysteine (Sigma-Aldrich, cat. A9165), 10 mM nicotinamide (Sigma-Aldrich, cat. N0636), 1X B-27 supplement (Thermo Fisher Scientific, cat. 17504044), 1X N-2 supplement (Thermo Fisher Scientific, cat. 17502048), 10 microM Y-27632 dihydrochloride (Tocris Bioscience, cat. 1254), and 50 ng/mL human EGF recombinant protein (Thermo Fisher Scientific, cat. PHG0311). The 485176-168-R4-J1-PDC line was cultured in Panc media, which includes all 6C/Colon 1B media components plus 100 ng/mL human FGF-10 (Thermo Fisher Scientific, cat. 100-26), 500 nM SB-431542 (Selleckchem, cat. S1067), and gastrin (Tocris, cat. 3006).
[…]

[1] = curve of first compound, second compound 0.0316 µM
[2] = curve of first compound, second compound 0.1 µM
[3] = curve of first compound, second compound 0.316 µM
[4] = curve of first compound, second compound 1 µM
[5] = curve of first compound, second compound 3.16 µM
[6] = curve of first compound, second compound 10 µM
[7] = second compound 0.0316 µM, first compound 0.0316 µM
[8] = second compound 0.0316 µM, first compound 0.1 µM
[9] = second compound 0.0316 µM, first compound 0.316 µM
[10] = second compound 0.0316 µM, first compound 1 µM
[11] = second compound 0.0316 µM, first compound 3.16 µM
[12] = second compound 0.0316 µM, first compound 10 µM
[13] = second compound 0.1 µM, first compound 0.0316 µM
[14] = second compound 0.1 µM, first compound 0.1 µM
[15] = second compound 0.1 µM, first compound 0.316 µM
[16] = second compound 0.1 µM, first compound 1 µM
[17] = second compound 0.1 µM, first compound 3.16 µM
[18] = second compound 0.1 µM, first compound 10 µM
[19] = second compound 0.316 µM, first compound 0.0316 µM
[20] = second compound 0.316 µM, first compound 0.1 µM
[21] = second compound 0.316 µM, first compound 0.316 µM
[22] = second compound 0.316 µM, first compound 1 µM
[23] = second compound 0.316 µM, first compound 3.16 µM
[24] = second compound 0.316 µM, first compound 10 µM
[25] = second compound 1 µM, first compound 0.0316 µM
[26] = second compound 1 µM, first compound 0.1 µM
[27] = second compound 1 µM, first compound 0.316 µM
[28] = second compound 1 µM, first compound 1 µM
[29] = second compound 1 µM, first compound 3.16 µM
[30] = second compound 1 µM, first compound 10 µM
[31] = second compound 3.16 µM, first compound 0.0316 µM
[32] = second compound 3.16 µM, first compound 0.1 µM
[33] = second compound 3.16 µM, first compound 0.316 µM
[34] = second compound 3.16 µM, first compound 1 µM
[35] = second compound 3.16 µM, first compound 3.16 µM
[36] = second compound 3.16 µM, first compound 10 µM
[37] = second compound 10 µM, first compound 0.0316 µM
[38] = second compound 10 µM, first compound 0.1 µM
[39] = second compound 10 µM, first compound 0.316 µM
[40] = second compound 10 µM, first compound 1 µM
[41] = second compound 10 µM, first compound 3.16 µM
[42] = second compound 10 µM, first compound 10 µM
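Further: spheroids exposed to the agents for one week before reading.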
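Wherever viability, T/C is given: percent of vehicle DMSO control viability so 100% = untreated growth.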

With CCc1c2c(nc3ccc(O)cc13)-c1cc3c(c(=O)n1C2)COC(=O)[C@]3(O)CC the viability, T/C (compound 0.000999 µM) was 72.2% and 58.7% and 67.3%, the viability, T/C (compound 0.00316 µM) was 58.9% and 53.5% and 66.5% and the viability, T/C (compound 0.00999 µM) was 59.5% and 47.4% and 56.2%. The viability, T/C (compound 0.0316 µM) was 43.9% and 44.5% and 44.3%, the viability, T/C (compound 0.0999 µM) was 28.2% and 31% and 38.2% and the viability, T/C (compound 0.316 µM) was 19.5% and 18.4% and 18.3%. The IC50 (curve of compound) was 0.0173 µM and 0.0083 µM and 0.0232 µM.

With CN(C)c1ccc(Nc2c3ccc(NC(=O)CCN4CCCC4)cc3nc3cc(NC(=O)CCN4CCCC4)ccc23)cc1 the viability, T/C (compound 0.0316 µM) was 102% [middle of 12 runs], the viability, T/C (compound 0.1 µM) was 106% [middle of 12 runs] and the viability, T/C (compound 1 µM) was 101% [middle of 12 runs]. For the same compound, the viability, T/C (compound 3.16 µM) was 99.7% [middle of 12 runs], the viability, T/C (compound 10 µM) was 90% [middle of 12 runs] and the IC50 (compound alone, run of 03/26/2024) was over 10 µM.

O=c1[nH]cc(F)c(=O)[nH]1 was tested, and the viability, T/C (compound 0.0316 µM) was 133% and 103% and 95.3%, the viability, T/C (compound 0.1 µM) was 97.8% and 107% and 117% and the viability, T/C (compound 0.316 µM) was 85.5% and 104% and 88.7%. For the same compound, the viability, T/C (compound 1 µM) was 105% and 96.9% and 91.4%, the viability, T/C (compound 3.16 µM) was 97% and 95.8% and 105% and the viability, T/C (compound 10 µM) was 86.7% and 77.5% and 79.2%. The IC50 (curve of compound) was over 10 µM.

For CC1COCCN1c1cc(C2(O)CC3CCC(C2)O3)c2cnn(-c3ccn[nH]3)c2n1 (centres undefined) + Cc1[nH]c2ccc(F)cc2c1-c1nc2c3cccnc3c3ncccc3c2[nH]1, the IC50 [1] was 0.144 µM, the IC50 [2] was 0.095 µM and the IC50 [3] was under 0.0316 µM. For the same compound, the IC50 [4] was under 0.0316 µM, the IC50 [5] was under 0.0316 µM and the IC50 [6] was under 0.0316 µM. For the same compound, the viability, T/C [7] was 68%, the viability, T/C [8] was 48% and the viability, T/C [9] was 39%. For the same compound, the viability, T/C [10] was 40.7%, the viability, T/C [11] was 28% and the viability, T/C [12] was 14%. The viability, T/C [13] was 61.3%, the viability, T/C [14] was 40.1% and the viability, T/C [15] was 46.8%. For the same compound, the viability, T/C [16] was 34.9%, the viability, T/C [17] was 31.5% and the viability, T/C [18] was 17.4%. The viability, T/C [19] was 48.8%, the viability, T/C [20] was 44.1% and the viability, T/C [21] was 44.2%. It also gave a viability, T/C [22] of 37.6%, a viability, T/C [23] of 28.3% and a viability, T/C [24] of 12.6%. It also gave a viability, T/C [25] of 48.9%, a viability, T/C [26] of 37.1% and a viability, T/C [27] of 38%. The viability, T/C [28] was 27.4%, the viability, T/C [29] was 19.9% and the viability, T/C [30] was 12.7%. It also gave a viability, T/C [31] of 36.8%, a viability, T/C [32] of 38.8% and a viability, T/C [33] of 30.3%. The viability, T/C [34] was 26.7%, the viability, T/C [35] was 18.3% and the viability, T/C [36] was 8.63%. The viability, T/C [37] was 41.4%, the viability, T/C [38] was 37.4% and the viability, T/C [39] was 31.6%. For the same compound, the viability, T/C [40] was 29.7%, the viability, T/C [41] was 25.4% and the viability, T/C [42] was 12.1%.

Compound CC1COCCN1c1cc(-c2ccnn2C)c2ccnc(-c3ccn[nH]3)c2n1 (centres undefined) + Cc1[nH]c2ccc(F)cc2c1-c1nc2c3cccnc3c3ncccc3c2[nH]1 has an IC50 [1] of 0.209 µM, an IC50 [2] of 0.221 µM and an IC50 [3] of 0.0782 µM. It also gave an IC50 [4] of under 0.0316 µM, an IC50 [5] of under 0.0316 µM and an IC50 [6] of under 0.0316 µM. It also gave a viability, T/C [7] of 92.4%, a viability, T/C [8] of 63.8% and a viability, T/C [9] of 41.3%. It also gave a viability, T/C [10] of 43.3%, a viability, T/C [11] of 37.2% and a viability, T/C [12] of 36%. The viability, T/C [13] was 71.1%, the viability, T/C [14] was 55.7% and the viability, T/C [15] was 41.6%. It also gave a viability, T/C [16] of 50.2%, a viability, T/C [17] of 52.6% and a viability, T/C [18] of 44%. It also gave a viability, T/C [19] of 59%, a viability, T/C [20] of 47.7% and a viability, T/C [21] of 45.7%. For the same compound, the viability, T/C [22] was 47.2%, the viability, T/C [23] was 43.9% and the viability, T/C [24] was 49.1%. The viability, T/C [25] was 44.3%, the viability, T/C [26] was 41.5% and the viability, T/C [27] was 37.6%. It also gave a viability, T/C [28] of 41.8%, a viability, T/C [29] of 45.1% and a viability, T/C [30] of 36.5%. It also gave a viability, T/C [31] of 36.9%, a viability, T/C [32] of 36.9% and a viability, T/C [33] of 39.7%. It also gave a viability, T/C [34] of 30.7%, a viability, T/C [35] of 24.9% and a viability, T/C [36] of 22.4%. For the same compound, the viability, T/C [37] was 47%, the viability, T/C [38] was 42.7% and the viability, T/C [39] was 41.4%. For the same compound, the viability, T/C [40] was 36.8%, the viability, T/C [41] was 44.1% and the viability, T/C [42] was 36.5%.
